This assay has as its system Dengue virus. The assay can be described thus: Dissociation constant for Dengue virus envelope protein binding by surface plasmon resonance. Format: functional. Background: Surface plasmon resonance follows binding to a sensor surface in real time, without labels.

Consider `Cc1ccc(C(=O)Nc2ccc(S(=O)(=O)O)c3cc(S(=O)(=O)O)cc(S(=O)(=O)O)c23)cc1NC(=O)c1cccc(NC(=O)Nc2cccc(C(=O)Nc3cc(C(=O)Nc4ccc(S(=O)(=O)O)c5cc(S(=O)(=O)O)cc(S(=O)(=O)O)c45)ccc3C)c2)c1` [SURAMIN], for which binding was put at a Kd of 40 nM. This lies in the double-digit nanomolar range.

The Kd is the free concentration of one partner at which half of the binding sites on the other are occupied at equilibrium, for simple one-to-one binding.

The values are drawn from ChEMBL document CHEMBL1134516, “Probing the interaction of dengue virus envelope protein with heparin: assessment of glycosaminoglycan-derived inhibitors” (J Med Chem, 2001).
